Test results published in patent US9150509B2, “Lipoic acid derivatives” (Cornerstone Pharmaceuticals, Inc., priority 2007, dated 2015).
Where two headings read alike, the source gives them in different places.

Columns and labels:
Format in all cases: cell-based
human melanoma A2058 = test: Anti-tumor activity, cell growth inhibition by CellTiter Blue Assay, A2058; conditions: read-out: IC50 A2058 (melanoma)
Procedure: (§1) Three human tumor cells were used in this investigation, and they were human H460 NSCLC, human melanoma A2058 and human […] HT1080 cell lines. Cells were originally obtained from American Type Cell Culture (ATCC) and have been used for experiments at passages below 30. All tumor cells were maintained at 37° C. in a humidified 5% CO2 atmosphere in T75 tissue culture flasks containing 25 mL of Roswell Park Memorial Institute (RPMI) 1640, with 10% fetal bovine serum (FBS) and 2 mM L-glutamine. The tumor cells were split at a ratio of 1:10 every 4-5 days by trypsinization and resuspended in fresh medium in a new flask. Cells were harvested for experiments at 70-90% confluency.
(§2) The culture media used for all cell lines in this study was Roswell Park Memorial Institute (RPMI) 1640, with 10% fetal bovine serum (FBS), 2 mM L-glutamine, 100 IU/mL penicillin and 100 μg/ml streptomycin. The test compounds used were generally prepared at a concentration higher than 20 mM and tested at 1 mM in cultured media for precipitation, 1 mM is the highest tested concentration of the test compounds.
(§3) The anti-tumor activities of the test compounds were assessed by exposing the tumor cells to various concentrations of test compounds (or vehicle) or not treated with the test compounds or vehicle. The concentration ranges of the test compounds evaluated in this study were 0-1 mM. The duration of treatment of the tumor cells was 48 hours. Subsequent to treatment with the test articles, the number of viable tumor cells was determined, and the concentrations of the test agents that induced 50% of cell growth inhibition (IC50) were derived and compared.
(§4) Cell Seeding for Experiments: To cells grown to 70-90% confluency, medium was removed and the cell monolayers were washed briefly by adding 5 mL of phosphate buffer saline (PBS) followed by aspiration. Trypsin-ethylenediaminetetraacetic acid (EDTA) (4 mL) was added to each, flask, and the flask was placed in the tissue culture incubator for 5 minutes. Serum-containing medium (10 mL) was added to halt the enzymatic reactions, and cells were disaggregated, by repeated resuspension with serological pipet. The cell-containing medium (20 μL) was added to 20 μL of 0.4% Trypan Blue solution, mixed, and 10 μL of this cell-containing mixture was placed in a chamber of a hemocytometer. The number of viable cells was determined by counting the number of viable cells (cells that excluded trypan blue) in the 4 corner squares of the hemocytometer chamber at 100× magnification. The volume of cells needed was determined by the following formula:
(§5) The number of cells targeted for the study was 4×10^3 per well in 100 μL of medium. The actual number of cells were counted and seeded in the wells of a 96 well-plate. The cells were then incubated for ˜24 hrs before they were used for testing of anti-tumor activities of the test compounds and vehicle. Cell monolayer was confluent or subconfluent for some cell lines at the day of the experiment.
(§6) Treatment with Test Compounds and Vehicle: On the day of testing, 5 μL of a specific concentration of the test compounds (or vehicle) were added to the wells. After exposure to the test articles (or vehicle) for 48 hours, the number of viable cells in the wells was determined (see next section), and the percent of cells relative to no treatment was calculated.
(§7) Determination of the Number of Viable Cells by the CellTiter Blue Assay: The number of viable cells was determined using the CellTiter Blue Assay in this study. Specifically, reagents were allowed to come to room temperature according to instructions from Protoega, Inc. (Madison, Wis.). CellTiter Blue reagent was added with the 12-channel Eppendorf pipettor, 20 μL per well. The cells were then incubated at 37° C. for 1-4 hrs in cell culture incubator. Fluorescence intensity, which is proportional to the quantity of viable cells, was read at 530/590 nm using FLUOstar optima fluorescence plate reader (BMG technologies, Germany). […]

human H460 NSCLC = test: Anti-tumor activity, cell growth inhibition by CellTiter Blue Assay, H460; conditions: read-out: IC50 H460 (NSCLC)
Procedure: as §1, §2, §3, §4, §5, §6, §7

[1] = tested on: human adenocarcinoma HT1080; test: Anti-tumor activity, cell growth inhibition by CellTiter Blue Assay, HT1080; conditions: read-out: IC50 HT1080
Procedure: as §1, §2, §3, §4, §5, §6, §7

[2] = Homo sapiens, A2058, 48 h, A2058 cells, 48 hours treatment, 0-1 mM, viable cells by CellTiter Blue
[3] = Homo sapiens, NCI-H460, 48 h, H460 cells, 48 hours treatment, 0-1 mM, viable cells by CellTiter Blue
[4] = Homo sapiens, HT-1080, 48 h, HT1080 cells, 48 hours treatment, 0-1 mM, viable cells by CellTiter Blue
[5] = A2058 cells, 48 hours treatment, 0-1 mM, viable cells by CellTiter Blue
[6] = H460 cells, 48 hours treatment, 0-1 mM, viable cells by CellTiter Blue
[7] = HT1080 cells, 48 hours treatment, 0-1 mM, viable cells by CellTiter Blue

O=C(O)CCCCC(CCSc1ccnc2cc(Cl)ccc12)Sc1ccnc2cc(Cl)ccc12 (stereo not drawn) [A] was tested, and the IC50 (human melanoma A2058; [2]) was 183 ± 3 µM, the IC50 (human H460 NSCLC; [3]) was 127 ± 11 µM and the IC50 [1, 4] was 80 ± 8 µM.

Compound CCC(S)(CCCCC(=O)O)CC(S)c1ccccc1 (stereo not drawn) [Compound MM, 6-ethyl-8-phenyl-6,8-bismercaptooctanoic acid] has an IC50 (human melanoma A2058; [2]) of 346 ± 20 µM, an IC50 (human H460 NSCLC; [3]) of 449 ± 1 µM and an IC50 [1, 4] of 421 ± 53 µM.

In the case of O=C(O)CCCCC(CCSc1ccnc2ccccc12)Sc1ccnc2ccccc12 (stereo not drawn) [F], the IC50 (human melanoma A2058; Homo sapiens, A2058, 48 h) is reported as 51 ± 4 µM, the IC50 (human H460 NSCLC; Homo sapiens, NCI-H460, 48 h) is reported as 70 ± 13 µM and the IC50 ([1]; Homo sapiens, HT-1080, 48 h) is reported as 68 ± 20 µM.

CCSC(CCS)CCCCC(=O)O (stereo not drawn) [H, 6-ethylmercapto-8-mercaptooctanoic acid] gave an IC50 (human melanoma A2058; [2]) of 238 ± 2 µM, an IC50 (human H460 NSCLC; [3]) of 282 ± 20 µM and an IC50 [1, 4] of 270 ± 4 µM.

O=C(O)CCCCC(CCSSCc1ccccc1)SSCc1ccccc1 (stereo not drawn) [JJ] showed an IC50 (human melanoma A2058; [5]) of 206 ± 55 µM, an IC50 (human H460 NSCLC; [6]) of 318 ± 20 µM and an IC50 [1, 7] of 133 ± 2 µM.

With O=C(O)CCCCC(CCSSCc1ccccc1)SSCc1ccccc1 (stereo not drawn) [KK] the IC50 (human melanoma A2058; [5]) was 483 ± 180 µM, the IC50 (human H460 NSCLC; [6]) was 409 ± 69 µM and the IC50 [1, 7] was 212 ± 52 µM.

In the case of O=C(O)CCCCC1CCSC(c2ccncc2)S1 (stereo not drawn) [Q], the IC50 (human melanoma A2058; Homo sapiens, A2058, 48 h) is reported as 717 ± 11 µM.

With O=C(O)CCCCC(CCSCCc1ccccc1)SCCc1ccccc1 (stereo not drawn) [W] the IC50 (human melanoma A2058; [2]) was 125 ± 3 µM and the IC50 (human H460 NSCLC; [3]) was 167 ± 42 µM.

Compound O=C(O)CCCCC(CCSCc1c(F)c(F)c(F)c(F)c1F)SCc1c(F)c(F)c(F)c(F)c1F (stereo not drawn) [X] has an IC50 (human melanoma A2058; [2]) of 59 ± 4 µM, an IC50 (human H460 NSCLC; [3]) of 64 ± 4 µM and an IC50 [1, 4] of 60 ± 18 µM.
